This note sets out measurements from patent publication US20210260057A1, “COMPOSITIONS AND METHODS TARGETING GLUTAMINE AND ITS METABOLISM FOR DIAGNOSING AND TREATING CANCER AND THERAPY-ASSOCIATED SIDE EFFECTS” (CEDARS-SINAI MEDICAL CENTER, priority 2018, published 2021).

One assay concerns CWR22Rv1 cells. As to the kind of experiment: 3D organotypic co-culture, epithelial proliferation by FACS (EpCAM+/Ki67+). In kind it is cell-based, human. Particulars: 3D co-cultures of fibroblasts and CWR22Rv1; P<0.05 (GPNA), P<0.001 (BPTES). The method, then: (§1) 3D organotypic co-culture. A modified version of the 3D organotypic co-culture system was performed in a collagen matrix similar to that previously reported (Stark H J, Baur M, Breitkreutz D, Mirancea N, and Fusenig N E. Organotypic keratinocyte cocultures in defined medium with regular epidermal morphogenesis and differentiation. J Invest Dermatol. 1999; 112(5):681-91). Matrix were prepared by mixing five volumes of rat tail collagen with two volumes of matrigel in one volume of 10×DMEM medium (GE Healthcare Life Sciences), and one volume of FBS (Atlanta Biologicals). CWR22Rv1 and primary mouse prostatic fibroblasts (WT or RAS^V12) were combined in a 1:3 ratio in the matrix. Nylon squares were coated with collagen and placed on metal grids in a 6-well plate. Matrix plugs containing cells, formed in 96 well plates (150 μl), were transferred onto the nylon squares and media was added to the level of the nylon mesh. Following treatments, the cells were dissociated from the matrix with collagenase and dispase for FACS analysis.
(In flow cytometry, cells or beads pass a laser one at a time.)

The subject of the next assay is CWR22Rv1 with CAF. As to the kind of experiment: 3D co-cultures of CAF-CWR22Rv1, neuroendocrine gene panel rtPCR. In kind it is cell-based, human. Particulars: in the context of enzalutamide, 3 days, glutamine free media, well below control levels, F test P<0.0001. On the procedure: as §1
(§2) RNA expression level. All real-time PCR assays were carried out using three technical replicates and three independent cDNA syntheses on a 7500 Real-Time PCR System (Applied Biosystems). Data were normalized using an internal control gene, either GAPDH or β-actin. Relative quantification of expression levels (RQ) was calculated using the ^2-ΔΔCt method.

The test system of assay [1] is human prostate cancer cells (CWR22Rv1). Nature of the assay: Gene expression in prostate cancer cells (FIG. 15A-D). The assay is classed as cell-based. Particulars: FIG. 15D.
Another assay concerns PD1 and CD47 on CWR22Rv1. As to the kind of experiment: FACS of immune checkpoint proteins in prostate cancer/fibroblast co-culture. The assay is classed as cell-based, human. Particulars: CWR22Rv1 co-cultured with wild type or CD105-knockout fibroblasts.
The test system of assay [2] is prostate cancer epithelial cells. As to the kind of experiment: ALDH (stem marker) in prostate cancer epithelial cells. In kind it is cell-based.
In another assay the test system is primary CAF. Nature of the assay: Macropinocytosis assay (TMR-dextran uptake). In kind it is cell-based, human. Particulars: EIPA 25 μM, 5-Aza DC 5 μM (FIG. 9A). On the procedure: Macropinocytosis assay. These were performed as described previously (Commisso C, Davidson S M, Soydaner-Azeloglu R G, Parker S J, Kamphorst J J, Hackett S, Grabocka E, Nofal M, Drebin J A, Thompson C B, et al. Macropinocytosis of protein is an amino acid supply route in Ras-transformed cells. Nature. 2013; 497(7451):633-7), briefly fibroblasts which were grown on cover slips, serum-starved for 18 hours. TMR-dextran (1 mg/ml; 70 kDa, […]), which is an established marker of macropinocytosis, was added to serum-free medium for 30 min at 37° C. for macropinosomes labeling (Commisso C, Davidson S M, Soydaner-Azeloglu R G, Parker S J, Kamphorst J J, Hackett S, Grabocka E, Nofal M, Drebin J A, Thompson C B, et al. Macropinocytosis of protein is an amino acid supply route in Ras-transformed cells. Nature. 2013; 497(7451):633-7). […] Images were captured using laser confocal scanning microscopy (Leica) and analyzed via LASX software. […] The fluorescence signals in the cells were imaged using FSX100 (Olympus, USA). To determine whether the internalized albumin is intracellularly degraded, we have utilized a self-quenching red fluorescent dye, where lysosomal proteases enable red fluorescence visualization. Cells were incubated in RPMI media containing DQ-BSA (10 μg/ml) for 30 min and washed twice with PBS and monitored by confocal microscopy.

Assay [3] has as its system CWR22Rv1 and Ras^V12 mouse fibroblast tissue recombinants. Nature of the assay: Orthotopic tissue recombinant xenograft, EIPA treatment. In kind it is in vivo. Particulars: SCID mice, anterior prostate grafts; EIPA for 1 week from two weeks after grafting, vs vehicle control; P<0.01 (FIG. 2H). The source says:
Tissue recombination mouse models.
To directly determine if Ras signaling confers a tumor supportive role associated with CAF, we used CRISPR/Cas9 to knock out Rasa13 in mouse prostatic fibroblasts. Compared to the expression of Cas9 fibroblasts (control), Ras activity and ERK phosphorylation was elevated in Rasa13-knockout (Rasa13-KO) fibroblasts (FIG. 2D). Rasa13-KO fibroblasts took up TMR dextran, whereas it was undetectable in the control fibroblasts (FIG. 2E). The exogenous expression of active Ras^V12 (Gly^12→Val^12) in wild-type mouse prostatic fibroblasts replicated the downstream ERK activation and macropinocytosis observed in CAF and Rasa13-KO cells (FIG. 2 F,G). Thus, epigenetic RASAL3 silencing of prostatic fibroblasts promoted familiar signaling and macropinocytosis associated with Ras transformation (Commisso et al., 2013). […] To test the role of stromal Ras-mediated macropinocytosis on tumor development, orthotopic PCa xenograft models were used. Tissue recombinants of Ras^V12-expressing fibroblasts and CWR22Rv1 epithelia were grafted into the anterior prostates of SCID mice. Two weeks later, mice were treated with vehicle control or EIPA for 1 week to suppress macropinocytosis (FIG. 2H). […] Thus, glutamine uptake by the tumor was necessary for its expansion.

The test system of a further assay is CWR22Rv1. As to the kind of experiment: MTT viability assay, CWR22Rv1. The assay is classed as cell-based, human. Particulars: CWR22Rv1, 72 hrs incubation with EIPA. The method, then: (§3) (FIG. 10A) The viability of CWR22Rv1 and mouse prostatic fibroblasts (Cas9 control and Rasa13-KO) was measured by MTT assay following 72 hrs incubation with macropinocytotic inhibitor, EIPA. The bar graphs represent the absorbance of the MTT formazan determined at 570 nm from a single experiment representative of a total 3 independent experiments, each performed in quadruplicate. Statistical significance was determined by one-way ANOVA. (FIG. 10B) Quantitation of EpCAM-positive epithelial cells were achieved by FACS of 3D co-cultures of human C4-2B epithelia and wild type (WT) or Ras^V12 mouse fibroblasts. Statistical significance was determined by unpaired t test. (FIG. 10C) Stromal fibroblasts (Cas9 or Rasa13-KO) cultured with CWR22Rv1 epithelia using a standard transwell apparatus. […] Epithelial and stromal cells grown in glutamine free either DMEMF12 or RPMI media. are expressed as mean±SEM of 3 independent experiments. Statistical significance was determined by two-tailed student's t test. **P<0.01, ****P<0.0001.
For orientation: Tetrazolium dyes change colour on reduction, which living cells bring about.

For assay [4], the system named is mouse prostatic fibroblasts (Cas9 control). As to the kind of experiment: MTT viability assay, control (Cas9 / wild type) fibroblasts. The assay is classed as cell-based. Particulars: 72 hrs incubation with EIPA. On the procedure: as §3
Assay [5] deals with Rasa13-KO mouse prostatic fibroblasts. As to the kind of experiment: MTT viability assay, Rasa13-KO fibroblasts. The assay is classed as cell-based. Particulars: 72 hrs incubation with EIPA, P<0.001. On the procedure: as §3
Assay [6] concerns prostate cancer (serum PSA). As to the kind of experiment: PSA response of PCa patients on androgen targeted therapy. Particulars: for PSA on treatment: individual PCa patient on the listed Rx. Set-up: PSA on treatment: unit not given beside the values. In kind it is in vivo, human. From the text: Plasma glutamine level may be prognostic for ADT sensitivity. Considering the striking finding that glutamine can induce ADT resistance, we tested if glutamine concentrations can be associated with ADT sensitivity in prostate cancer patients. We measured blood plasma glutamine concentrations in 28 PCa patients that received ADT (Table 1). Of note, the specific androgen signaling-axis interventions in the patient pool included, androgen receptor antagonists: bicalutamide, enzalutamide, and apalutamide, as well as androgen synthesis inhibitors: leuprolide, goserelin, triptorelin, and abiraterone.

The next assay deals with RASAL3 mRNA in CAF. Nature of the assay: RASAL3 mRNA expression (rtPCR) in CAF. The assay is classed as cell-based, human. Particulars: 5-day treatment; Bic 10^−5 M, Enza 10^−5 M, R1881 10^−9 M, 5-Aza 5 mmol/L. The method, then:
as §2

The next assay relates to RASAL3 promoter. As to the kind of experiment: Methylation specific PCR of RASAL3 exon 2 in CAF. In kind it is cell-based, human. Particulars: CAF after treatment. The method, then: (FIG. 13A) Quantitative rtPCR analysis of RASAL3 in NAF and CAF was performed following 5 day treatment with bicalutamide (Bic, 10^−5 M), enzalutamide (Enza, 10^−5 M), R1881 (10^−9 M), or 5-Azacytidine (5-Aza, […]). RASAL3 expression was normalized GAPDH expression. Data represent the mean±SEM. *P<0.05, ***P<0.001, and ****P<0.0001, by two-way ANOVA followed by multiple comparison. Results are the average of at least three independent experiments. (FIG. 13B) MS-PCR of the RASAL3 exon 2 methylation status in CAF after treatment with enzalutamide, R1881, 5-Azacytidine and bicalutamide was performed. The PCR products in the lanes marked “U” indicate unmethylated templates for RASAL3 gene, whereas the products in the lanes marked “M” indicate methylated templates. Data are representative of three independent experiments.

Where “and” joins values, the source holds several entries; their conditions need not be identical. Identical values can stand only once.

As for `O=C(Cc1ccccc1)Nc1nnc(CCSCCc2nnc(NC(=O)Cc3ccccc3)s2)s1` [BPTES, bis-2(5-phenylacetamido-1,3,4-thiadiazol-2-yl)ethyl sulfide], the “epithelial proliferation (Ki-67 staining of EpCAM+ cells, FACS)” value in the assay with CWR22Rv1 cells was “significantly decreased epithelial proliferation”. Moreover, in the assay on CWR22Rv1 with CAF, the “mRNA expression of the panel of neuroendocrine biomarker genes” value was “significantly reduced”. In assay [1], the “enzalutamide-induced TET2 expression” value is given as “downregulates”. For the same molecule, in the assay with PD1 and CD47 on CWR22Rv1, the “CD47 expression (FACS)” value is “downregulated” and the “PD1 expression (FACS)” value is reported as “downregulated”. Further, the “enzalutamide-upregulated ALDH” value in [2] (epithelial culture without stromal fibroblasts (FIG. 17B)) is recorded as “can be limited”.
With `N[C@@H](CCC(=O)O)C(=O)O` [glutamate], in assay [2] (prostate cancer epithelial cells (FIG. 17A, 17B)), the “ALDH (stem marker)” value is “upregulates ALDH further”.
`CCN(c1nc(N)c(C(=O)N=C(N)N)nc1Cl)C(C)C` [EIPA, 5-(N-ethyl-N-isopropyl) amiloride]: the “TMR-dextran uptake by CAF (macropinocytosis)” value in the assay on primary CAF was “inhibited”. The tumor size result in assay [3] is “dramatically reduced tumor size”. Also, the “viability (MTT)” value in the assay with CWR22Rv1 is “no significant effect”; in assay [4], “no significant effect”; in assay [5], “reduced the viability”.
For the molecule `CCNC(=O)[C@@H]1CCCN1C(=O)[C@H](CCCNC(=N)N)NC(=O)[C@H](CC(C)C)NC(=O)[C@@H](CC(C)C)NC(=O)[C@H](Cc1ccc(O)cc1)NC(=O)[C@H](CO)NC(=O)[C@H](Cc1c[nH]c2ccccc12)NC(=O)[C@H](Cc1c[nH]cn1)NC(=O)[C@@H]1CCC(=O)N1` [L, Leuprolide], the PSA on treatment in assay [6] was <0.1 and 7.8 and 0.1 and 1.1 and 1.2 and 0.2. In assay [6] (individual PCa patient, responsiveness to ADT based on serum PSA), the Outcome entry was “Responsive (4×) and Non- (2×)”.
For the molecule `Nc1ncn([C@H]2C[C@H](O)[C@@H](CO)O2)c(=O)n1` [5-aza-2′-deoxycytidine], the “TMR-dextran uptake by CAF (macropinocytosis)” value in the assay with primary CAF was “inhibited”. Further, the “RASAL3 mRNA expression in CAF” value in the assay with RASAL3 mRNA in CAF is on record as “restored”. For the same molecule, in the assay on RASAL3 promoter, the “methylation of the RASAL3 promoter (methylation specific PCR)” value is reported as “hypomethylation”.
As for `CC(O)(CS(=O)(=O)c1ccc(F)cc1)C(=O)Nc1ccc(C#N)c(C(F)(F)F)c1` (stereo not shown) [bicalutamide], the PSA on treatment in assay [6] was 11.3.
Take `C[C@]12CC[C@H](O)CC1=CC[C@@H]1[C@@H]2CC[C@]2(C)C(c3cccnc3)=CC[C@@H]12` [A, Abiraterone]: the PSA on treatment in [6] is 26.2 and 6.4.
